Source: PubChem BioAssay AID248 (DTP/NCI, 2004)
Inconclusive results and toxic doses are left out. No stated cut-off is given here; in the data, active means T/C of 150% or more; inactive means T/C below 125%.

Tested on: L1210 leukemia ip in BDF1 mice, survival T/C
Experiment: NCI In Vivo Anticancer Drug Screen. Data for tumor model L1210 Leukemia (intraperitoneal) in B6D2F1 (BDF1) mice
Settings: endpoint: mean survival time, higher = longer survival
Summary of the method: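 Survival endpoint. Drug-treated group vs vehicle group, expressed as T divided by C. Tumor passaged by transplantation.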

[1] = dose: 100.0 mg/kg/injection, schedule: Q01DX001 (ip), vehicle: saline
[2] = dose: 200.0 mg/kg/injection, schedule: Q01DX001 (ip), vehicle: saline
[3] = dose: 100.0 mg/kg/injection, schedule: Q04DX003 (ip), vehicle: Klucel (hydroxypropylcellulose) (HPC)
[4] = dose: 200.0 mg/kg/injection, schedule: Q04DX003 (ip), vehicle: Klucel (hydroxypropylcellulose) (HPC)
[5] = dose: 400.0 mg/kg/injection, schedule: Q04DX003 (ip), vehicle: Klucel (hydroxypropylcellulose) (HPC)
[6] = dose: 100.0 mg/kg/injection, schedule: Q04DX002 (ip), vehicle: saline
[7] = dose: 200.0 mg/kg/injection, schedule: Q04DX002 (ip), vehicle: saline
[8] = dose: 400.0 mg/kg/injection, schedule: Q04DX002 (ip), vehicle: saline
[9] = dose: 100.0 mg/kg/injection, schedule: Q01DX009 (ip), vehicle: Klucel (hydroxypropylcellulose) (HPC)
[10] = dose: 200.0 mg/kg/injection, schedule: Q01DX009 (ip), vehicle: Klucel (hydroxypropylcellulose) (HPC)
[11] = dose: 400.0 mg/kg/injection, schedule: Q01DX009 (ip), vehicle: Klucel (hydroxypropylcellulose) (HPC)
[12] = dose: 100.0 mg/kg/injection, schedule: Q01DX009 (ip), vehicle: saline with Tween-80
[13] = dose: 200.0 mg/kg/injection, schedule: Q01DX009 (ip), vehicle: saline with Tween-80
[14] = dose: 400.0 mg/kg/injection, schedule: Q01DX009 (ip), vehicle: saline with Tween-80

Measured: T/C

C/C=C(/C)C(=O)O[C@H]1CCN2CC=C(COC(=O)[C@@](O)([C@H](C)OC)C(C)(C)O)[C@H]12
inactive: dose: 5.0 mg/kg/injection, schedule: Q01DX001 (ip), vehicle: other 100 % of control | dose: 7.5 mg/kg/injection, schedule: Q04DX003 (ip), vehicle: Klucel (hydroxypropylcellulose) (HPC) 97 % of control | dose: 10.0 mg/kg/injection, schedule: Q01DX001 (ip), vehicle: other 105 % of control | dose: 15.0 mg/kg/injection, schedule: Q04DX003 (ip), vehicle: Klucel (hydroxypropylcellulose) (HPC) 103 % of control | dose: 20.0 mg/kg/injection, schedule: Q01DX001 (ip), vehicle: other 100 % of control | dose: 30.0 mg/kg/injection, schedule: Q04DX003 (ip), vehicle: Klucel (hydroxypropylcellulose) (HPC) 103 % of control | dose: 40.0 mg/kg/injection, schedule: Q01DX001 (ip), vehicle: other 102 % of control | dose: 60.0 mg/kg/injection, schedule: Q04DX003 (ip), vehicle: Klucel (hydroxypropylcellulose) (HPC) 97 % of control | dose: 80.0 mg/kg/injection, schedule: Q01DX001 (ip), vehicle: other 103 % of control

Nc1nc(Cl)nc2c1ncn2Cc1ccccc1
inactive: dose: 9.5 mg/kg/injection, schedule: Q01DX001 (ip), vehicle: other 101 % of control | dose: 19.0 mg/kg/injection, schedule: Q01DX001 (ip), vehicle: other 105 % of control | dose: 38.0 mg/kg/injection, schedule: Q01DX001 (ip), vehicle: other 101 % of control | dose: 75.0 mg/kg/injection, schedule: Q01DX001 (ip), vehicle: other 119 % of control

COC(=O)c1ccc(NCC(=N)N)cc1
inactive: [1] 95 % of control | [2] 107 % of control

CCNS(=O)(=O)c1cccc(C(N)=S)c1
inactive: dose: 100.0 mg/kg/injection, schedule: Q01DX001 (ip), vehicle: gum acacia 103 % of control | dose: 200.0 mg/kg/injection, schedule: Q01DX001 (ip), vehicle: gum acacia 105 % of control | dose: 400.0 mg/kg/injection, schedule: Q01DX001 (ip), vehicle: gum acacia 106 % of control

Cc1ccc2c(c1)OC(=O)CC2C (stereo unspecified)
inactive: dose: 100.0 mg/kg/injection, schedule: Q01DX001 (ip), vehicle: carboxymethylcellulose (CMC) 100 % of control | dose: 200.0 mg/kg/injection, schedule: Q01DX001 (ip), vehicle: carboxymethylcellulose (CMC) 96 % of control | dose: 400.0 mg/kg/injection, schedule: Q01DX001 (ip), vehicle: carboxymethylcellulose (CMC) 96 % of control

c1ccc(C[Si](c2ccccc2)c2ccccc2)cc1
inactive: [3] 107 % of control | [4] 100 % of control | [5] 98 % of control

N#CC1(N(O)C(=O)Nc2ccccc2)CCCCC1
inactive: [1] 93 % of control | [2] 96 % of control | dose: 400.0 mg/kg/injection, schedule: Q01DX001 (ip), vehicle: saline 91 % of control

O=C1c2ccccc2C(=O)N1CC(O)COc1ccc(Cl)cc1 (stereo unspecified)
inactive: [3] 92 % of control | [4] 92 % of control | [5] 91 % of control

CC(=O)c1cc(Cl)ccc1Cl
inactive: [6] 97 % of control | [7] 103 % of control | [8] 103 % of control

O=C1CCC(=O)N1c1ccccc1Cl
inactive: dose: 87.5 mg/kg/injection, schedule: Q01DX001 (ip), vehicle: Klucel (hydroxypropylcellulose) (HPC) 102 % of control | dose: 175.0 mg/kg/injection, schedule: Q01DX001 (ip), vehicle: Klucel (hydroxypropylcellulose) (HPC) 106 % of control | dose: 350.0 mg/kg/injection, schedule: Q01DX001 (ip), vehicle: Klucel (hydroxypropylcellulose) (HPC) 98 % of control

O=S(=O)(Nc1ccc(NS(=O)(=O)c2ccccc2)nc1)c1ccccc1
inactive: [9] 96 % of control | [3] 101 % of control | [10] 98 % of control | [4] 97 % of control | [11] 101 % of control | [5] 101 % of control

O=C(NC1CCCCC1)NC1CCCCC1
inactive: [12] 95 % of control | [13] 88 % of control | [14] 87 % of control

CN(C)CCOC(=O)c1cccc(CCBr)c1
inactive: dose: 87.5 mg/kg/injection, schedule: Q01DX009 (ip), vehicle: saline 103 % of control | dose: 175.0 mg/kg/injection, schedule: Q01DX009 (ip), vehicle: saline 92 % of control | dose: 350.0 mg/kg/injection, schedule: Q01DX009 (ip), vehicle: saline 104 % of control

Fc1cccc(/C=C2/c3cc(Cl)ccc3-c3c(Cl)cc(Cl)cc32)c1
inactive: dose: 100.0 mg/kg/injection, schedule: Q01DX001 (ip), vehicle: Klucel (hydroxypropylcellulose) (HPC) 93 % of control | [9] 88 % of control | [3] 91 % of control | dose: 200.0 mg/kg/injection, schedule: Q01DX001 (ip), vehicle: Klucel (hydroxypropylcellulose) (HPC) 91 % of control | [10] 89 % of control | [4] 93 % of control | dose: 400.0 mg/kg/injection, schedule: Q01DX001 (ip), vehicle: Klucel (hydroxypropylcellulose) (HPC) 88 % of control | [11] 96 % of control | [5] 88 % of control

S=C(NC1CCCCC1)N1CCC(CCCC2CCN(C(=S)NC3CCCCC3)CC2)CC1
inactive: [12] 95 % of control | [13] 97 % of control | [14] 97 % of control

CCCCCCCCC(=O)Cl
inactive: [6] 100 % of control | [7] 100 % of control | [8] 103 % of control

CCCCCCN1C(C)C1C(C)C (stereo unspecified)
inactive: dose: 20.0 mg/kg/injection, schedule: Q01DX009 (ip), vehicle: saline 114 % of control | dose: 20.0 mg/kg/injection, schedule: Q04DX003 (ip), vehicle: Klucel (hydroxypropylcellulose) (HPC) 105 % of control | dose: 40.0 mg/kg/injection, schedule: Q01DX009 (ip), vehicle: saline 115 % of control | dose: 40.0 mg/kg/injection, schedule: Q04DX003 (ip), vehicle: Klucel (hydroxypropylcellulose) (HPC) 100 % of control | dose: 80.0 mg/kg/injection, schedule: Q01DX009 (ip), vehicle: saline 107 % of control | dose: 80.0 mg/kg/injection, schedule: Q04DX003 (ip), vehicle: Klucel (hydroxypropylcellulose) (HPC) 105 % of control

NN(CC1=COc2ccccc2O1)Cc1ccccc1
inactive: dose: 25.0 mg/kg/injection, schedule: Q01DX009 (ip), vehicle: Klucel (hydroxypropylcellulose) (HPC) 100 % of control | dose: 25.0 mg/kg/injection, schedule: Q04DX003 (ip), vehicle: Klucel (hydroxypropylcellulose) (HPC) 92 % of control | dose: 50.0 mg/kg/injection, schedule: Q01DX009 (ip), vehicle: Klucel (hydroxypropylcellulose) (HPC) 94 % of control | dose: 50.0 mg/kg/injection, schedule: Q04DX003 (ip), vehicle: Klucel (hydroxypropylcellulose) (HPC) 92 % of control | [9] 96 % of control | [3] 92 % of control | [10] 95 % of control | [4] 95 % of control | [5] 97 % of control

CCCCNc1cc(N)[nH]c(=O)n1
inactive: dose: 75.0 mg/kg/injection, schedule: Q01DX001 (ip), vehicle: saline with Tween-80 93 % of control | dose: 150.0 mg/kg/injection, schedule: Q01DX001 (ip), vehicle: saline with Tween-80 90 % of control | dose: 300.0 mg/kg/injection, schedule: Q01DX001 (ip), vehicle: saline with Tween-80 90 % of control
